Measured values taken from patent publication US20110269699A1, “CANCER THERAPY” (priority 2008, published 2011).

Columns and labels:
4242Eμ-myc lymphomas [1] = assay: In vivo therapy assay (Kaplan-Meier survival); design: species or system C57BL/6 mice; conditions: 5.6 mg/kg i.v. every 4 d, four doses; vehicle 19 d; P<0.0003
Procedure: (§1) FIG. 4. […] C57BL/6 mice (10 mice per group) bearing (FIG. 4A) 4242Eμ-myc, (FIG. 4B) 229Eμ-myc, (FIG. 4C) 226Eμ-myc, (FIG. 4D) 102Eμ-myc, (FIG. 4E) 4242Eμ-myc/Bcl-2, (FIG. 4F) 229Eμmyc/Bcl-2, (FIG. 4G) 226Eμ-myc/Bcl-2, and (FIG. 4H) 102Eμ-myc/Bcl-2, lymphomas were treated with romidepsin or vehicle. Therapy commenced after WBC counts reached ≧13×10^3/μL. Therapy consisted of either 5.6 mg/kg romidepsin (injected i.v. every 4 d for a total of four doses) or vehicle.
(§2) For therapy experiments, Eμ-myc lymphomas were transplanted into C57BL/6 mice and treatment with romidepsin or vehicle commenced when WBC counts in the peripheral blood reached a pathologic threshold (>13×10^3/μL).
(§3) For in vivo apoptosis assays, C57BL/6 mice were injected with Eμ-myc lymphomas (5×10^5 cells per animal) and after 10 to 15 days on which lymph nodes became well-palpable romidepsin (5.6 mg/kg) was administered i.v. After the indicated time points, mice were sacrificed and cells were harvested from brachial lymph nodes for fluorescence-activated cell sorting-based assays to measure apoptotic signaling (Lindemann et al., Proc. Nat. Acad. Sci. USA 104:8071-8078, 2007). To assess therapeutic efficacy of romidepsin, C57BL/6 mice were injected with Eμ-myc lymphomas of the indicated genotypes i.v. (5×10^5 cells per animal). Peripheral WBC counts were then monitored until they exceeded 13×10^3/μL (Sysmex Hematology Analyzer K-1000) and romidepsin was administered at 5.6 mg/kg i.v. once every 4 days for a total of four injections. […] Mice in the control cohort received the corresponding amount of vehicle. Cohorts consisted of 8 to 11 mice each, 2 to 3 independently derived lymphomas per genotype. Peripheral WBC counts and body weights were recorded weekly. On signs of major distress or when lymphomas were relapsing as indicated by enlarged brachioaxial lymph nodes, mice were euthanized and a necropsy was done. For analysis of therapeutic efficacy, tumor-induced mortality “events” were recorded. Kaplan-Meier analysis was done and comparisons made using the log-rank (Mantel-Cox) test (MedCalc software version 8.0.2.0).

[2] = tested on: 226Eμ-myc/Bcl-2 lymphomas; assay: In vivo therapy assay (Kaplan-Meier survival); design: species or system C57BL/6 mice; conditions: 5.6 mg/kg i.v. every 4 d, four doses
Procedure: as §1, §2, §3

[3] = tested on: 102Eμ-myc/Bcl-2 lymphomas; assay: In vivo therapy assay (Kaplan-Meier survival); design: species or system C57BL/6 mice; conditions: 5.6 mg/kg i.v. every 4 d, four doses
Procedure: as §1, §2, §3

226Eμ-myc lymphomas = assay: In vivo therapy assay (Kaplan-Meier survival); design: species or system C57BL/6 mice; conditions: 5.6 mg/kg i.v. every 4 d, four doses; vehicle 15 d; P<0.0001
Procedure: as §1, §2, §3

[4] = tested on: 4242Eμ-myc/Bcl-2 lymphomas; assay: In vivo therapy assay (Kaplan-Meier survival); design: species or system C57BL/6 mice; conditions: 5.6 mg/kg i.v. every 4 d, four doses
Procedure: as §1, §2, §3

102Eμmyc lymphomas = assay: In vivo therapy assay (Kaplan-Meier survival); design: species or system C57BL/6 mice; conditions: 5.6 mg/kg i.v. every 4 d, four doses; vehicle 14 d; P<0.0001
Procedure: as §1, §2, §3

[5] = tested on: 229Eμ-myc/Bcl-2 lymphomas; assay: In vivo therapy assay (Kaplan-Meier survival); design: species or system C57BL/6 mice; conditions: 5.6 mg/kg i.v. every 4 d, four doses
Procedure: as §1, §2, §3

229Eμ-myc lymphomas = assay: In vivo therapy assay (Kaplan-Meier survival); design: species or system C57BL/6 mice; conditions: 5.6 mg/kg i.v. every 4 d, four doses; vehicle 20 days; P<0.0001
Procedure: as §1, §2, §3

[6] = tested on: 102Eμ-myc/Bcl-2 lymphomas; assay: In vitro cell death analysis, time course; type: cell-based, mouse; conditions: 3.0 nmol/L; up to 72 h
Eμ-myc lymphomas = assay: In vivo therapy assay (survival); design: species or system C57BL/6 mice; conditions: 5.6 mg/kg i.v. every 4 d, four doses
Procedure: as §2
For in vivo apoptosis assays, C57BL/6 mice were injected with Eμ-myc lymphomas (5×10^5 cells per animal) and after 10 to 15 days on which lymph nodes became well-palpable romidepsin (5.6 mg/kg) was administered i.v. After the indicated time points, mice were sacrificed and cells were harvested from brachial lymph nodes for fluorescence-activated cell sorting-based assays to measure apoptotic signaling (Lindemann et al., Proc. Nat. Acad. Sci. USA 104:8071-8078, 2007). To assess therapeutic efficacy of romidepsin, C57BL/6 mice were injected with Eμ-myc lymphomas of the indicated genotypes i.v. (5×10^5 cells per animal). Peripheral WBC counts were then monitored until they exceeded 13×10^3/μL (Sysmex Hematology Analyzer K-1000) and romidepsin was administered at 5.6 mg/kg i.v. once every 4 days for a total of four injections. […] Mice in the control cohort received the corresponding amount of vehicle. Cohorts consisted of 8 to 11 mice each, 2 to 3 independently derived lymphomas per genotype. Peripheral WBC counts and body weights were recorded weekly. […] For analysis of therapeutic efficacy, tumor-induced mortality “events” were recorded. […]

Eμ-myc/Bcl-2 lymphomas = assay: In vivo apoptosis assay; design: species or system C57BL/6 mice; conditions: all four Eμ-myc/Bcl-2 lymphomas; 5.6 mg/kg i.v.; 24 h after exposure
Procedure: as §3

[7] = tested on: 226Eμ-myc/Bcl-2 lymphomas; assay: In vivo apoptosis assay; design: species or system C57BL/6 mice; conditions: 5.6 mg/kg i.v.; even at 36 h
Procedure: as §3

[8] = tested on: 229Eμ-myc/Bcl-2 lymphomas; assay: In vitro cell death analysis, time course; type: cell-based, mouse
Description: The primary function of prosurvival Bcl-2 proteins is to inhibit the activity of Bak and Bax proteins and thereby protect the mitochondrial membrane from damage (Cory et al., Nat. Rev. Cancer 2:647-656, 2002). To determine if the induction of apoptosis mediated by romidepsin in 4242Eμ-myc/Bcl-2 and 229Eμ-myc/Bcl-2 lymphomas was via perturbation of the mitochondrial membrane or through some other mechanism, HDACi-induced mitochondrial outer membrane permeabilization (MOMP) was quantitated by staining with tetramethylrhodamine ethyl ester (Molecular Probes).
Next, the cell cycle profiles of Eμ-myc/Bcl-2 lymphomas treated with oxamflatin and romidepsin over 3 days were assessed.
(§4) Eμ-myc lymphoma cells (5×10^5/mL) were incubated in the presence of the indicated compounds for 20 h in 1 mL cell culture medium in 24-well plates (Greiner Bio-One). Viability of cells as measured by trypan blue exclusion assay, propidium iodide uptake, Annexin V staining, cell cycle analysis, or tetramethylrhodamine ethyl ester staining were done as described (Lindemann et al., Proc. Nat. Acad. Sci. USA 104:8071-8078, 2007).

4242Eμ-myc lymphomas [9] = assay: In vitro cell death analysis (parental control of the Bcl-XL experiment); type: cell-based, mouse
Procedure: To determine if increased expression of Bcl-XL could confer resistance to romidepsin, 4242Eμ-myc/Bcl-XL lymphomas were produced and tested for sensitivity to HDACi.
as §4

(1S,4S,10S,16E,21R)-7-[(2Z)-ethylidene]-4,21-diisopropyl-2-oxa-12,13-dithia-5,8,20,23-tetraazabicyclo[8.7.6]tricos-16-ene-3,6,9,19,22-pentanone [Romidepsin]
median survival (4242Eμ-myc lymphomas [1]): 28 days
therapeutic benefit (survival) [2]: little or no therapeutic benefit
median survival ([2]; vehicle 16 d, P=0.86): 16 days
therapeutic benefit (survival) [3]: little or no therapeutic benefit
median survival ([3]; vehicle 11 d, P<0.07): 14.5 days
median survival (226Eμ-myc lymphomas): 19.5 days
survival of mice compared with vehicle-treated mice [4]: significantly extended the survival
median survival ([4]; vehicle 12 d, P<0.0001): 22.5 days
median survival (102Eμmyc lymphomas): 22 days
survival of mice compared with vehicle-treated mice [5]: significantly extended the survival
median survival ([5]; vehicle 18 d, P<0.0001): 30 days
median survival (229Eμ-myc lymphomas): 30 days
cell killing in time course [6]: remained relatively insensitive
survival of mice compared with vehicle-treated mice (Eμ-myc lymphomas): significantly extended
apoptosis in vivo (Eμ-myc/Bcl-2 lymphomas): resistant to romidepsin-induced apoptosis
apoptosis in vivo [7]: remained insensitive
cell killing in time course ([8]; 3.0 nmol/L, up to 72 h): could kill
DNA fragmentation (sub-G1) indicative of apoptosis ([8]; over 3 days, data not shown): increase in the percentage of cells showing DNA fragmentation
plasma membrane integrity and mitochondrial function (4242Eμ-myc lymphomas [9]; increasing concentrations over 24 h): dose-dependent loss of plasma membrane integrity and mitochondrial function
cell cycle analysis: DNA fragmentation (4242Eμ-myc lymphomas [9]; increasing doses): DNA fragmentation occurred
cell killing in time course (4242Eμ-myc lymphomas [9]; parental Eμ-myc lymphomas, within the first 24 h, 3 nmol/L romidepsin or 0.1 μmol/L oxamflatin): effectively killed
